In patent publication US20190142800A1, “SYNERGISTIC ANTIFUNGAL COMPOSITIONS AND METHODS THEREOF” (VYOME THERAPEUTICS LIMITED, priority 2016, published 2019):

Assays:
[1] = system: azole resistant C. albicans MTCC 227; assay: Checkerboard assay on azole resistant C. albicans MTCC 227; format: cell-based, Candida albicans; details: for MIC: Candida albicans, MTCC227, agent alone
[2] = system: Trichophyton rubrum (ATCC-28188); assay: Checkerboard assay of fatty acid/ester with antifungals on Trichophyton rubrum (ATCC 28188); format: cell-based; set-up: key to FIC index: FIC index = sum of FICs; FIC = agent conc in well / agent MIC; details: for MIC: Trichophyton rubrum, ATCC28188, agent alone
C. albicans = assay: Checkerboard assay of clotrimazole and oleic acid (C18) in C. albicans; format: cell-based, Candida albicans; details: clotrimazole + oleic acid, FIGS. 1B and 1C
Method: The synergy is measured by determining the fractional inhibitory concentration (FIC) value of the combination. This experimental set up, called checkerboard method, allows measurement of a desired effect (inhibition of fungal growth in this case) at different combinations of various concentrations of the two agents (antifungal agent and fatty acid/ester). […] No agent is added to the penultimate column on the right and the bottom row. The final column on the right is used for growth control (only inoculum in broth) and sterility control (broth alone, no inoculum). […] FIC value for each agent in a particular well of the checkerboard layout was calculated by dividing the agent concentration in that well by the established MIC value of the agent against the test organism (Hsieh et al., Synergy assessed by checkerboard: A critical Analysis, Diagn. Microbiol. Infect Dis. (1993) 16:343-349). FIC values for both agents in a particular well were calculated in this way followed by determination of the FIC index (sum of the FICs of each drug in the concerned well). […] Agents Chemother. (2010) 54(2): 602-609].

[3] = agent's MIC in combination antifungal + caprylic acid (partner: other agent of same combination no.)
[4] = agent's MIC in combination antifungal + glyceryl monocaprylate (partner: other agent of same combination no.)
[5] = agent's MIC in combination antifungal + lauric acid (partner: other agent of same combination no.)
[6] = agent's MIC in combination antifungal + propylene glycol monolaurate (partner: other agent of same combination no.)
[7] = antifungal in combination with caprylic acid
[8] = antifungal in combination with glyceryl monocaprylate
[9] = antifungal in combination with lauric acid
[10] = antifungal in combination with propylene glycol monocaprylate
[11] = antifungal in combination with propylene glycol monolaurate
[12] = antifungal in combination with undecylenic acid
[13] = combination antifungal + caprylic acid
[14] = combination antifungal + glyceryl monocaprylate
[15] = combination antifungal + lauric acid
[16] = combination antifungal + propylene glycol monolaurate

Clc1ccccc1C(c1ccccc1)(c1ccccc1)n1ccnc1 [Clotrimazole]
MIC ([1]; Table 9, caprylic acid (C8) series): 8 µg/mL
MIC ([1]; Table 10, propylene glycol monocaprylate series): 16 µg/mL
MIC ([1]; Table 11, glyceryl monocaprylate series): 16 µg/mL
MIC ([1]; Table 12, undecylenic acid (C11) series): 16 µg/mL
MIC ([1]; Table 13, lauric acid (C12) series): 8 µg/mL
MIC ([1]; Table 14, propylene glycol monolaurate series): 16 µg/mL
Combination MIC [1, 3]: 0.25 µg/mL
Combination MIC [1, 4]: 4 µg/mL
Combination MIC [1, 5]: 1 µg/mL
Combination MIC ([1]; agent's MIC in combination antifungal + propylene glycol monocaprylate (partner: other agent of same combination no.)): 4 µg/mL
Combination MIC [1, 6]: 8 µg/mL
Combination MIC ([1]; agent's MIC in combination antifungal + undecylenic acid (partner: other agent of same combination no.)): 2 µg/mL
FIC index [1, 7]: 0.093
Interaction [1, 7]: Synergistic (Combinations that gave FIC indices less than 1 were designated “synergistic”)
FIC index [1, 8]: 0.5
Interaction [1, 8]: Synergistic (Combinations that gave FIC indices less than 1 were designated “synergistic”)
FIC index [1, 9]: 0.187
Interaction [1, 9]: Synergistic (Combinations that gave FIC indices less than 1 were designated “synergistic”)
FIC index [1, 10]: 0.312
Interaction [1, 10]: Synergistic (Combinations that gave FIC indices less than 1 were designated “synergistic”)
FIC index [1, 11]: 0.515
Interaction [1, 11]: Synergistic (Combinations that gave FIC indices less than 1 were designated “synergistic”)
FIC index [1, 12]: 0.187
Interaction [1, 12]: Synergistic (Combinations that gave FIC indices less than 1 were designated “synergistic”)
FIC [1, 13]: 0.031
FIC [1, 14]: 0.25
FIC [1, 15]: 0.125
FIC ([1]; combination antifungal + propylene glycol monocaprylate): 0.25
FIC [1, 16]: 0.5
FIC ([1]; combination antifungal + undecylenic acid): 0.125
MIC ([2]; Table 1, caprylic acid series): 0.6 µg/mL
MIC ([2]; Table 2, propylene glycol monocaprylate series): 0.6 µg/mL
MIC ([2]; Table 3, glyceryl monocaprylate series): 0.6 µg/mL
MIC ([2]; Table 5, lauric acid (C12) series): 0.5 µg/mL
MIC ([2]; Table 6, propylene glycol monolaurate series): 0.5 µg/mL
Combination MIC [2, 3]: 0.075 µg/mL
Combination MIC [2, 4]: 0.075 µg/mL
Combination MIC [2, 5]: 0.125 µg/mL
Combination MIC [2, 6]: 0.125 µg/mL
FIC index [2, 7]: 0.375
Interaction [2, 7]: Synergistic (Combinations that gave FIC indices less than 1 were designated “synergistic”)
FIC index [2, 8]: 0.625
Interaction [2, 8]: Synergistic (Combinations that gave FIC indices less than 1 were designated “synergistic”)
FIC index [2, 9]: 0.75
Interaction [2, 9]: Synergistic (Combinations that gave FIC indices less than 1 were designated “synergistic”)
Interaction [2, 10]: Synergistic (Combinations that gave FIC indices less than 1 were designated “synergistic”)
FIC index [2, 11]: 0.5
Interaction [2, 11]: Synergistic (Combinations that gave FIC indices less than 1 were designated “synergistic”)
FIC [2, 13]: 0.125
FIC [2, 14]: 0.125
FIC [2, 15]: 0.25
FIC [2, 16]: 0.25
combination activity (interaction) with oleic acid (C18) (C. albicans): antagonistic effect
